# Source: US7906499B2, “Polycarboxylated porphyrins and use thereof in treatment of metal toxicities” (priority 2005, dated 2011)
# Where “and” joins values, the source holds several entries; their conditions need not be identical. Equal entries are not always repeated.
# Assays:
# [1] = Absorption spectroscopy of porphyrin intermediates on addition of metal (metal binding), +Zn; set-up: key to Cpor 500 nm peak, change after metal addition / Cpor 538 nm peak, change after metal addition / Cpor 560 nm peak, change after metal addition / Cpor 608 nm peak, change after metal addition / Upor 498 nm peak, change after metal addition / Upor 540 nm peak, change after metal addition / Upor 565 nm peak, change after metal addition / Upor 612 nm peak, change after metal addition: Dis; peak disappeared.; Inc; Peak increased.; Dec; peak decreased.; = indicates no difference from the control.; (a)indicates new peak
# Description: (§1) In the determining step, the individual is identified as subject to or predisposed to a polycarboxylated porphyrin-binding metal toxicity. Polycarboxylated porphyrin-binding metal toxicities include metal toxicity from environmental exposure, and disorders characterized by disturbances in metal ion homeostasis, particularly disorders that result in metal ion accumulation. Examples of such disorders include Wilson's disease, in which copper transport is defective (e.g. Nakayama, 2000); aceruloplasminemia, an iron metabolism disorder (e.g. Miyajima, 2003); and diseases involving metal-facilitated protein aggregation such as zinc, copper, or iron facilitated-aggregation of Aβ in Alzheimer's disease (e.g. Atamna, 2004), and aluminum, copper, iron, cobalt, or manganese facilitated-aggregation of α-synuclein in Parkinson's disease (e.g. Uversky, 2001). Conventional spectroscopy assays (e.g. Beer, 2003) can be used to determine whether a given polycarboxylated porphyrin binds the toxic metal of interest (e.g. Example 2, below). In particular embodiments, the metal is selected from the group consisting of Al^+++, Hg^++, […], Cu^+, Mn^+, and Zn^++.
# (§2) We studied the interaction between metals and porphyrin intermediates.
# [2] = Absorption spectroscopy of porphyrin intermediates on addition of metal (metal binding), +Cu; set-up: key to Cpor 370 nm peak, change after metal addition / Cpor 500 nm peak, change after metal addition / Cpor 538 nm peak, change after metal addition / Cpor 560 nm peak, change after metal addition / Cpor 608 nm peak, change after metal addition / Upor 395 nm peak, change after metal addition / Upor 498 nm peak, change after metal addition / Upor 540 nm peak, change after metal addition / Upor 565 nm peak, change after metal addition / Upor 612 nm peak, change after metal addition: Dis; peak disappeared.; Inc; Peak increased.; Dec; peak decreased.; = indicates no difference from the control.; (a)indicates new peak
# Description: as §1, §2
# [3] = Absorption spectroscopy of porphyrin intermediates on addition of metal (metal binding), +Mn; set-up: key to Cpor 370 nm peak, change after metal addition / Cpor 500 nm peak, change after metal addition / Cpor 538 nm peak, change after metal addition / Cpor 560 nm peak, change after metal addition / Cpor 608 nm peak, change after metal addition / Upor 395 nm peak, change after metal addition / Upor 498 nm peak, change after metal addition / Upor 540 nm peak, change after metal addition / Upor 565 nm peak, change after metal addition / Upor 612 nm peak, change after metal addition: Dis; peak disappeared.; Inc; Peak increased.; Dec; peak decreased.; = indicates no difference from the control.; (a)indicates new peak
# Description: as §1, §2
# Aβ1-40 = Aβ1-40 (Homo sapiens, UniProt P05067); assay: Dissolution / prevention of metal-induced Aβ aggregates (filtration, 6E10 immunodetection); type: biochemical; settings: "we found", with reference to Atamna, 2004
# Sequence of Aβ1-40 (P05067 672-711 limits assumed): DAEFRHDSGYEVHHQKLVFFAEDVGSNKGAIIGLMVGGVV
# Description: Aβ1-40 (10 ng in 200 μl) aggregation is induced by incubation (30 min, RT) with ZnCl2 (25 μM in TBS, pH 7.4), CuCl2 (5 μM in TBS, pH 6.8), or acidic conditions (pH 5.5, MES buffered saline). Aggregates are transferred to a 0.2μ nylon membrane by filtration using a 96-well ELIFA apparatus (Pierce). The aggregates are then washed (200 μl/well) with TBS alone, TBS containing 2 μM EDTA (control), or TBS with uroproporphyrin or coproporphyrin at varying concentrations (0.1 μM-1 mM). The membrane is fixed, probed with the anti-Aβ monoclonal antibody 6E10 (Senetek), and developed for exposure to ECL film. Quantification of retained, aggregated Aβ is performed by densitometry, calibrated against known amounts of the peptide.
# Because metals, such as Zn++ and Cu+, trigger the pathologic aggregation of Aβ, an important causal factor in Alzheimers disease, we tested the ability of endogenous prophyrins to prevent Aβ aggregation using published methodology. […] The effect of porphyrins on Aβ is likely mediated by their ability to chelate metals. […] Endogenous porphyrins can be used directly, or their synthesis can be triggered in tissue by applying their precursors and/or cofactors, for therapeutic purposes including the treatment and prevention of disorders that involve Aβ aggregation and/or metal toxicity. […]
compound,measurement,setting,value
"O=C(O)CCC1=C(CC(=O)O)c2cc3[nH]c(cc4nc(cc5[nH]c(cc1n2)c(CC(=O)O)c5CCC(=O)O)C(CCC(=O)O)=C4CC(=O)O)c(CC(=O)O)c3CCC(=O)O [Upor, Uroporphyrin III]",New peak after metal addition (marked a),[1],575a nm
same,"Upor 498 nm peak, change after metal addition",[1],Dis
same,"Upor 540 nm peak, change after metal addition",[1],Inc
same,"Upor 565 nm peak, change after metal addition",[1],Dis
same,"Upor 612 nm peak, change after metal addition",[1],Dis
same,Upor 395 nm peak after metal addition (peak position),[1]; control peak 395 nm,405 nm
same,New peak after metal addition (marked a),[2],525a nm
same,"Upor 395 nm peak, change after metal addition",[2],Inc
same,"Upor 498 nm peak, change after metal addition",[2],Dis
same,"Upor 540 nm peak, change after metal addition",[2],Dis
same,"Upor 565 nm peak, change after metal addition",[2],Inc
same,"Upor 612 nm peak, change after metal addition",[2],Dis
same,New peak after metal addition (marked a),[3],460a nm and 545a nm and 575a nm
same,"Upor 395 nm peak, change after metal addition",[3],Inc
same,"Upor 498 nm peak, change after metal addition",[3],Dis
same,"Upor 540 nm peak, change after metal addition",[3],Dis
same,"Upor 565 nm peak, change after metal addition",[3],Dis
same,"Upor 612 nm peak, change after metal addition",[3],Dis
C=CC1=C(C)c2cc3[n-]c(cc4[n-]c(cc5nc(cc1n2)C(C)=C5C=C)c(C)c4CCC(=O)O)c(CCC(=O)O)c3C.[Fe+2] [heme],Displacement of metals from aggregated Aβ and disaggregation,Aβ1-40,displace metals from the aggregated Aβ and disaggregate the complex
Coproporphyrin III [Cpor],"Cpor 500 nm peak, change after metal addition",[1],Dis
same,"Cpor 538 nm peak, change after metal addition",[1],Inc
same,"Cpor 560 nm peak, change after metal addition",[1],Inc
same,"Cpor 608 nm peak, change after metal addition",[1],Dis
same,New peak after metal addition (marked a),[1],575a nm
same,Cpor 370 nm peak after metal addition (peak position),[1]; control peak 370 nm,400 nm
same,"Cpor 370 nm peak, change after metal addition",[2],=
same,"Cpor 500 nm peak, change after metal addition",[2],=
same,"Cpor 538 nm peak, change after metal addition",[2],Dec
same,"Cpor 560 nm peak, change after metal addition",[2],Dec
same,"Cpor 608 nm peak, change after metal addition",[2],Dis
same,New peak after metal addition (marked a),[2],525a nm
same,"Cpor 370 nm peak, change after metal addition",[3],=
same,"Cpor 500 nm peak, change after metal addition",[3],=
same,"Cpor 538 nm peak, change after metal addition",[3],=
same,"Cpor 560 nm peak, change after metal addition",[3],=
same,"Cpor 608 nm peak, change after metal addition",[3],=
